# Experimental data as given in US12516070B2, “Fused ring derivatives and use thereof in pharmacy” (priority 2020, dated 2026).
# Key:
# [1] = system: A/PR/8/34 I38T Mutation (H1N1); type: cell-based, influenza virus
# [2] = system: A/WSN/33 I38T Mutation (H1N1); type: cell-based, influenza virus
structure (smiles),measurement,setting,value
CN1C(=O)c2c(O)c(=O)ccn2N2[C@H](c3ccccc3Br)c3cc(F)c(F)cc3OCC[C@@H]12 [Compound 18A],EC50,[1],117 nM
same,EC50,[2],214 nM
